pKi: −log10 of the molar value. “And” between values parts separate entries of the source, which are not always exact repeats. Identical values can stand only once.
These compounds were tested against Neurotensin (Cavia porcellus, UniProt P32560).
In the case of `COc1cccc(OC)c1-c1cc(C(=O)NC2(C(=O)O)C3CC4CC(C3)CC2C4)nn1-c1ccnc2cc(Cl)ccc12` (centres undefined), the pKi was 9.00 and 8.60. In the case of `COc1cccc(OC)c1-c1cc(C(=O)N[C@H](C(=O)O)C2CCCCC2)nn1-c1ccnc2cc(Cl)ccc12`, the pKi was 8.77 and 8.35. `CCC(C)C(N)C(=O)C(C)(CC(=O)C(N)CCCCN)C(C(=O)C(N)Cc1ccc(O)cc1)(C(=O)C1CCCN1)C(N)(C(=O)O)C(=O)C(N)C(C)CC` (centres undefined) [NSC_3025353] was tested, and the pKi was 5.80. For `COc1cccc(OC)c1-c1cc(C(=O)N[C@@H](C(=O)O)C2CCCCC2)nn1-c1ccnc2cc(Cl)ccc12` [SR 49711], the pKi was 5.70 and 5.68.

Source: BindingDB's records for PubMed 7791120 (Hospital Saint-Antoine, 1995)
